Reference: patent US20240246980A1, “MODULATORS OF MAS-RELATED G-PROTEIN RECEPTOR D AND RELATED PRODUCTS AND METHODS” (Escient Pharmaceuticals, Inc., priority 2022, published 2024)

target: human MRGPRD (Homo sapiens, UniProt Q8TDS7); assay: MRGPRD antagonist activity, IP-One HTRF assay in CHO cells stably expressing human MRGPRD (versus 100 μM β-Alanine agonist); assay type: cell-based
In short: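 Cells (20,000/well, plated overnight) received antagonist and agonist in buffer with 5.7 mM Tris-HCl, 43 mM NaCl and 50 mM LiCl at pH 8. Incubation ran 1 h at 37 °C, then 1 h at room temperature, before IP-1 HTRF detection. IC50 was fitted from the HTRF ratio, and percent antagonism was taken relative to the maximum efficacy response, given as averages with SEM.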

Sequence of human MRGPRD (Q8TDS7 whole entry): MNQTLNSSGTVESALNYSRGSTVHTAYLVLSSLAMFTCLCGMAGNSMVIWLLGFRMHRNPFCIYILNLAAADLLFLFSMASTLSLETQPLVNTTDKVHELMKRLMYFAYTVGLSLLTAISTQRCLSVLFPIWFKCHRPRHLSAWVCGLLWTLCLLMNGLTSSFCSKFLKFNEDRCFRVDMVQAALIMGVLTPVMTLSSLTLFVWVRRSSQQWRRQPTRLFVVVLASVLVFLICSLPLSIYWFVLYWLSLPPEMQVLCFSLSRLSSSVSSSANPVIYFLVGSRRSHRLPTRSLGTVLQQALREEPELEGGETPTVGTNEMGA

| IC50 [nM] | Compound |
| --- | --- |
| 1000 to 3000 | COc1ccc(-c2nc([C@H]3CCCN(C(=O)Nc4ccc(N(C)C)cc4)C3)n3ccccc23)cc1 [Compound 10-48] |
| 100 to 500 | CN(C)c1ccc(NC(=O)N2CCC[C@@H](c3nc(-c4ccc(C(F)F)cc4)c4ccccn34)C2)cc1 [Compound 10-49] |
| < 100 | CN(C)c1ccc(NC(=O)N2CCC[C@@H](c3nc(-c4cccc5c4CCC5)c4ccccn34)C2)cc1 [Compound 10-50] |
| < 100 | CN(C)c1ccc(NC(=O)N2CCC[C@@H](c3nc(-c4cccc5c4OCO5)c4ccccn34)C2)cc1 [Compound 10-51] |
| 1000 to 3000 | CN(C)c1ccc(NC(=O)N2CCC[C@@H](c3nc(-c4cnn(Cc5ccccc5)c4)c4ccccn34)C2)cc1 [Compound 10-52] |
| 500 to 1000 | CN(C)c1ccc(NC(=O)N2CCC[C@@H](c3nc(-c4cnoc4)c4ccccn34)C2)cc1 [Compound 10-53] |
| 500 to 1000 | CN(C)c1ccc(NC(=O)N2CCC[C@@H](c3nc(-c4cn(S(=O)(=O)c5ccccc5)c5ccccc45)c4ccccn34)C2)cc1 [Compound 10-54] |
| 500 to 1000 | Cc1noc(C)c1-c1nc([C@@H]2CCCN(C(=O)Nc3ccc(N(C)C)cc3)C2)n2ccccc12 [Compound 10-55] |
| 500 to 1000 | CC(=O)c1ccc(-c2nc([C@@H]3CCCN(C(=O)Nc4ccc(N(C)C)cc4)C3)n3ccccc23)s1 [Compound 10-57] |
| 500 to 1000 | Cc1csc(-c2nc([C@@H]3CCCN(C(=O)Nc4ccc(N(C)C)cc4)C3)n3ccccc23)c1 [Compound 10-58] |
| 1000 to 3000 | CN(C)c1ccc(NC(=O)N2CCC[C@@H](c3nc(-c4cccc(S(C)(=O)=O)c4)c4ccccn34)C2)cc1 [Compound 10-59] |
| > 3000 | COc1ncc(-c2nc([C@@H]3CCCN(C(=O)Nc4ccc(N(C)C)cc4)C3)n3ccccc23)cn1 [Compound 10-60] |
| > 3000 | CN(C)c1ccc(NC(=O)N2CCC[C@@H](c3nc(-c4cc5ccccc5s4)c4ccccn34)C2)cc1 [Compound 10-61] |
| 1000 to 3000 | CN(C)c1ccc(NC(=O)N2CCC[C@@H](c3nc(-c4cnn(CC5CC5)c4)c4ccccn34)C2)cc1 [Compound 10-62] |
| 1000 to 3000 | CN(C)c1ccc(NC(=O)N2CCC[C@@H](c3nc(-c4cnn(-c5ccccc5)c4)c4ccccn34)C2)cc1 [Compound 10-63] |
| > 3000 | CN(C)Cc1cccc(-c2nc([C@@H]3CCCN(C(=O)Nc4ccc(N(C)C)cc4)C3)n3ccccc23)c1 [Compound 10-64] |
| 500 to 1000 | CN(C)c1ccc(NC(=O)N2CCC[C@@H](c3nc(-c4ccccc4CC#N)c4ccccn34)C2)cc1 [Compound 10-65] |
| > 3000 | CN(C)c1ccc(NC(=O)N2CCC[C@@H](c3nc(-c4ccccc4S(C)(=O)=O)c4ccccn34)C2)cc1 [Compound 10-66] |
| 1000 to 3000 | COCc1cccc(-c2nc([C@@H]3CCCN(C(=O)Nc4ccc(N(C)C)cc4)C3)n3ccccc23)c1 [Compound 10-67] |
| 500 to 1000 | CN(C)c1ccc(NC(=O)N2CCC[C@@H](c3nc(-c4nn(C)c5ccccc45)c4ccccn34)C2)cc1 [Compound 10-68] |
| 500 to 1000 | CC(C)Cn1nc(C(F)(F)F)cc1-c1nc([C@@H]2CCCN(C(=O)Nc3ccc(N(C)C)cc3)C2)n2ccccc12 [Compound 10-69] |
| < 100 | COC(=O)c1cccc(-c2nc([C@@H]3CCCN(C(=O)Nc4ccc(N(C)C)cc4)C3)n3ccccc23)c1 [Compound 10-70] |
| < 100 | CN(C)C(=O)c1cccc(-c2nc([C@@H]3CCCN(C(=O)Nc4ccc(N(C)C)cc4)C3)n3ccccc23)c1 [Compound 10-71] |
| 100 to 500 | CN(C)c1ccc(NC(=O)N2CCC[C@@H](c3nc(-c4cnn(C(F)F)c4)c4ccccn34)C2)cc1 [Compound 10-72] |
| 1000 to 3000 | Cc1ccccc1-c1nc(C2CCCN(C(=O)Nc3ccccc3F)C2)n2ccccc12 (stereo not drawn) [Compound 11-1] |
| 1000 to 3000 | O=C(Nc1ccccc1F)N1CCCC(c2nc(-c3ccccc3F)c3ccccn23)C1 (stereo not drawn) [Compound 11-2] |
| 1000 to 3000 | COc1ccccc1-c1nc(C2CCCN(C(=O)Nc3ccccc3F)C2)n2ccccc12 (stereo not drawn) [Compound 11-3] |
